Several values for one entry are separate records, joined by “and”; a condition that tells them apart may be missing. Equal entries are not always repeated.
Columns and labels:
Assay type in all cases: in vivo
[1] = test system: Tobacco (var Samsun) plantlets in agar; assay: HST + HPPD herbicide effects on tobacco seedlings in agar; conditions: for % Injury, plus Mesotrione (0.004 ppm) (EXPECTED): Colby expected; for % Injury, plus Mesotrione (0.004 ppm) (EXPECTED) / % Injury, plus Mesotrione (0.004 ppm) (OBSERVED) / % Injury (bleaching), haloxydine only / % Injury (O − E): agar, 7 DAT; for % Injury (O − E): observed minus expected
Procedure: Tobacco (var Samsun) plantlets germinated aseptically in agar made up in 1/3 strength Murashige and Skoog salts medium along with various doses of herbicide. Bleaching damage to emerging plantlets is assessed 7 DAT. The plantlets are kept covered under clear perspex and grown at 18° C. (night) and 24° C. (day) under a 16 h day (˜500-900 umol/m^2), 8 h darkness regime. Herbicide affected plantlets are bleached white and grow less. Synergistic/antagonistic responses are calculated using the Colby formula (Colby, S. R. (Calculating synergistic and antagonistic responses of herbicide Combinations”, Weeds, 15, p. 20-22, 1967).

[2] = test system: tobacco leaf explants; assay: Tobacco leaf explants plated on NBM medium with haloxydine; conditions: 1 mg/1 haloxydine
Procedure: To roughly evaluate comparative levels of ectopic HST expression independent PCR positive tobacco shoots have young leaves removed, cut into 1 cm squares and plated onto NBM medium incorporating 1 mg/1 haloxydine. These leaf explants produce callus and ultimately regenerated shoots.

[3] = test system: Arabidopsis HST transgenic tobacco plants; assay: Glasshouse spray test, Arabidopsis HST transgenic tobacco; conditions: 25 gai/ha; D2 line (Arabidopsis HST, segregating T1), individual plants
[4] = haloxydine 0.3 ppm + mesotrione 0.004 ppm
[5] = haloxydine 0.6 ppm + mesotrione 0.004 ppm
[6] = haloxydine 1.2 ppm + mesotrione 0.004 ppm
[7] = haloxydine 2.4 ppm + mesotrione 0.004 ppm
[8] = haloxydine 4.7 ppm + mesotrione 0.004 ppm
[9] = haloxydine 9.4 ppm + mesotrione 0.004 ppm
[10] = haloxydine 18.8 ppm + mesotrione 0.004 ppm
[11] = haloxydine 37.5 ppm + mesotrione 0.004 ppm

Oc1c(Cl)c(F)nc(F)c1Cl [Compound 1.1, haloxydine]
% Injury, plus Mesotrione (0.004 ppm) (EXPECTED) [1, 4]: 41.5%
% Injury, plus Mesotrione (0.004 ppm) (EXPECTED) [1, 5]: 48%
% Injury, plus Mesotrione (0.004 ppm) (EXPECTED) [1, 6]: 58%
% Injury, plus Mesotrione (0.004 ppm) (EXPECTED) [1, 7]: 67.5%
% Injury, plus Mesotrione (0.004 ppm) (EXPECTED) [1, 8]: 80%
% Injury, plus Mesotrione (0.004 ppm) (EXPECTED) [1, 9]: 94%
% Injury, plus Mesotrione (0.004 ppm) (EXPECTED) [1, 10]: 100%
% Injury, plus Mesotrione (0.004 ppm) (EXPECTED) [1, 11]: 100%
effect of adding a low dose of mesotrione on the herbicidal effect ([1]; agar grown tobacco plantlets): synergises
% Injury, plus Mesotrione (0.004 ppm) (OBSERVED) [1, 4]: 50%
% Injury (bleaching), haloxydine only ([1]; haloxydine 0.3 ppm): 10%
% Injury, plus Mesotrione (0.004 ppm) (OBSERVED) [1, 5]: 50%
% Injury (bleaching), haloxydine only ([1]; haloxydine 0.6 ppm): 20%
% Injury, plus Mesotrione (0.004 ppm) (OBSERVED) [1, 6]: 70%
% Injury (bleaching), haloxydine only ([1]; haloxydine 1.2 ppm): 35%
% Injury, plus Mesotrione (0.004 ppm) (OBSERVED) [1, 7]: 90%
% Injury (bleaching), haloxydine only ([1]; haloxydine 2.4 ppm): 50%
% Injury, plus Mesotrione (0.004 ppm) (OBSERVED) [1, 8]: 100%
% Injury (bleaching), haloxydine only ([1]; haloxydine 4.7 ppm): 70%
% Injury, plus Mesotrione (0.004 ppm) (OBSERVED) [1, 9]: 100%
% Injury (bleaching), haloxydine only ([1]; haloxydine 9.4 ppm): 90%
% Injury, plus Mesotrione (0.004 ppm) (OBSERVED) [1, 10]: 100%
% Injury (bleaching), haloxydine only ([1]; haloxydine 18.8 ppm): 100%
% Injury, plus Mesotrione (0.004 ppm) (OBSERVED) [1, 11]: 100%
% Injury (bleaching), haloxydine only ([1]; haloxydine 37.5 ppm): 100%
% Injury (O − E) [1, 4]: 8.5%
% Injury (O − E) [1, 5]: 2%
% Injury (O − E) [1, 6]: 12%
% Injury (O − E) [1, 7]: 22.5%
% Injury (O − E) [1, 8]: 20%
% Injury (O − E) [1, 9]: 6%
% Injury (O − E) [1, 10]: 0%
% Injury (O − E) [1, 11]: 0%
callus and shoot regeneration ([2]; explants over expressing HST): green callus and shoots
callus and shoot regeneration ([2]; untransformed explants or transformants with limited HST expression): bleached callus and stunted bleached shoots that ultimately died
% damage at 7 DAT [3]: 55% (2×) and 35% and 65% (3×) and 100% and 30%

From patent publication US20110173718A1, “HERBICIDE TOLERANT PLANTS” (SYNGENTA CROP PROTECTION, INC., priority 2008, published 2011)
